Source: US20100048521A1, “COMBINATION OF A GLUCO-KORTICOID AND BETA-CYCLODEXTRIN CONJUGATED VITAMIN A-DERIVATE COMPLEX” (priority 2006, published 2010)

Tested on: skin (epidermis+dermis) of healthy female volunteers
Assay: Comparative study of skin atrophy: skin thickness and density by ultrasound (Dermascan C) after topical treatment of the inner arm
Assay type: in vivo, human
Excerpt: Comparative Study of Hydrocortisone and Hydrocortisone Combined with β-cyclodextrin Conjugated Retinyl Palmitate Complex with Respect to the Development of Skin Atrophy
The study was run according to the protocol described below and was approved by the local regional ethics committee before the study was initiated.
The study included 10 healthy female volunteers. The average age was 43.2 years. They received treatment with hydrocortisone cream 1% on the inner part of one arm (right or left) once daily for 4 weeks. […] On the opposite arm they were treated with hydrocortisone cream 1% and after 10 minutes Nourella Cream containing β-cyclodextrin conjugated retinyl palmitate complex was applied (Pharma Medico; Aarhus, Denmark). Treatments were randomized so that half of the participants treated the right arm with hydrocortisone and the left with the combination and vice versa.
The skin was inspected clinically in the beginning and at the end of the study and objective measurement of the skin thickness and density was done by ultrasound (Dermascan C).

[1] = after 4 weeks of once daily topical treatment, inner arm, ultrasound, ns

**Q.** Which “Average reduction of skin thickness (epidermis+dermis)” value (4 weeks once daily topical, change vs baseline, p=0.07 between arms) does the source give for `C[C@]12CCC(=O)C=C1CC[C@@H]1[C@@H]2[C@@H](O)C[C@@]2(C)[C@H]1CC[C@]2(O)C(=O)CO` [Hydrocortisone, hydrocortisone] here?
**A.** 15%

**Q.** What about the “Skin density, After 4 weeks” value [1] of the same compound?
**A.** 1830.0 ns pixel

**Q.** What about the “Skin thickness, After 4 weeks” value [1] of the same compound?
**A.** 0.954 ns mm

**Q.** What about the “Development of low echogenic dark areas (dermis density)” value (after 4 weeks of treatment, ultrasound, p=0.08) of the same compound?
**A.** Low echogenic dark areas develop

**Q.** And the “Cross-section of the skin: thickness and density vs baseline (figure)” value (after treatment for 4 weeks, ultrasound picture)?
**A.** The skin gets thinner and the density decrease

**Q.** What about the “Skin density, Baseline” value (baseline, before treatment, inner arm, ultrasound) of the same compound?
**A.** 1503.5 pixel

**Q.** And the “Skin thickness, Baseline” value (baseline, before treatment, inner arm, ultrasound, 10 healthy female volunteers)?
**A.** 1.122 mm

**Q.** What about the Skin atrophy (used for 4 weeks, FIG. 1 and FIG. 2) of the same compound?
**A.** significant skin atrophy
